Values after ≈ are worked out from the molar mass of the structure shown. Where two headings read alike, the source gives them in different places. Where no end group is shown, it is not given here.
How the values were obtained:
[1] = test system: preformed MDRPA (CCARM 2095) biofilms; type: cell-based, multidrug-resistant Pseudomonas aeruginosa; conditions: 24 h treatment; for MBEC50: 50% eradication; for MBEC90: 90% eradication
Protocol: While preventing biofilm formation on surfaces is crucial, treating established biofilm infections presents a significant challenge due to the extracellular polymeric substance (EPS) matrix hindering antibiotic penetration and the high cell density within mature biofilms. To address this challenge, we evaluated the ability of BP100 and its analogs to eradicate established MDRPA biofilms over a 24 h period. The minimum biofilm eradication concentration (MBEC90) was determined using crystal violet staining as the lowest concentration that reduced biomass by more than 90%. Among these peptides, BP5, BP6, BP7, BP8, BP9, BP11, and BP13 eradicated preformed MDRPA biofilms by more than 90% at a concentration of 8 μM (Figure 3c,d and Table 3).
The minimal biofilm eradication concentration (MBEC) for peptides against the multidrug-resistant Pseudomonas aeruginosa (MDRPA) (CCARM 2095) strain was assessed using the Calgary Biofilm Device (CBD), supplied by Innovotech, Edmonton, AB, Canada. A bacterial suspension with a density of (1 × 10^6) CFU/mL in (150 µL) of Luria–Bertani (LB) media was dispensed into each well of a 96-well microtiter plate, which was equipped with a peg lid (Innovotech, product code: 19111). This plate was incubated at 37 °C for 24 h with agitation at 110 rpm, promoting biofilm formation on the pegs. Subsequently, the peg lid was washed with phosphate-buffered saline (PBS, 0.01 M) and relocated to a fresh plate containing varying peptide concentrations (200 µL per well). The biofilms were then subjected to these peptides under the same incubation conditions. After another PBS rinse, the peg lid was moved to a recovery plate filled with (200 µL) of LB media per well. To detach the biofilms from the pegs, the recovery plate underwent sonication in a water bath for 10 to 15 min. Finally, the recovery plate was incubated at 37 °C for 24 h with agitation at 110 rpm, allowing any surviving bacteria to proliferate and cause turbidity. The MBEC is defined as the lowest concentration of peptides that inhibited turbidity formation in the recovery plate in comparison to sterility controls. This experiment was conducted in triplicate, and the median value from each trial was recorded.

[2] = test system: E. coli (KCTC 1682); type: cell-based, Escherichia coli
Protocol: To comprehensively evaluate the therapeutic potential of BP100 and the five selected analogs, we assessed their capacity to maintain antibacterial activity in the presence of physiological salts and serum (Table 4). Antibacterial assays were conducted in an environment supplemented with either […] fresh human serum or physiological salts. […] This enhanced stability in physiologically relevant conditions may have important implications for the potential therapeutic applications of these peptide analogs.
The minimal inhibitory concentrations (MICs) of the peptides against bacterial strains were determined using a modified broth-microdilution method in accordance with the National Committee for Clinical Laboratory Standards (NCCLS) guidelines. Overnight cultures were diluted in cation-adjusted Mueller–Hinton Broth (MHB) to achieve an inoculum density of 2 × 10^6 CFU/mL. A two-fold serial dilution of the peptide solution (100 μL) was introduced into microtiter plates, followed by the addition of 100 μL of bacterial suspension. The plates were then incubated at 37 °C for 24 h to determine the MICs. Wells containing only culture media served as negative controls, while those with added bacteria functioned as positive controls. The MIC, expressed in μM, was defined as the lowest peptide concentration that prevented visible bacterial growth. This protocol was also employed to determine MICs in the presence of physiological salts (150 mM of NaCl, 4.5 mM of KCl, 6 μM of NH4Cl, 1 mM of MgCl2, 2.5 mM of CaCl2, and 4 μM of FeCl3) and 20% human serum to assess the peptides’ efficacy under conditions more closely resembling physiological environments. All experiments were conducted in triplicate and repeated three times independently to ensure reproducibility and statistical significance of the results.

[3] = test system: MDRPA (CCARM 2095); type: cell-based, multidrug-resistant Pseudomonas aeruginosa; conditions: for MICA: MIC of peptide alone: checkerboard, 37 °C, 24 h; for FICI: fractional inhibitory concentration index: peptide with ciprofloxacin, [A]/MICA + [B]/MICB
Description: Multidrug-resistant pathogens pose a significant challenge to both human and animal health. The steady decline in the discovery of new antibiotics has exacerbated the difficulty in developing effective therapies for infection control. Consequently, there is an urgent need for alternative strategies that can combat pathogens without inducing drug resistance. One such strategy involves the combination of different antimicrobial agents. The effects of antimicrobial peptides (AMPs) combined with conventional antibiotics often surpass those of individual drugs. […] The primary advantage of synergistic combinations lies in their ability to lower the concentration of each antimicrobial agent required for effective antibacterial activity. This approach offers several benefits, including reduced production costs, a decreased risk of adverse side effects, diminished toxicity to mammalian cells, and a lower likelihood of drug resistance development. In light of these potential advantages, we investigated the synergistic effects of BP100 and the five selected analogs in combination with ciprofloxacin against multidrug-resistant Pseudomonas aeruginosa (MDRPA) using a checkerboard synergy assay. Ciprofloxacin, an antibiotic belonging to the fluoroquinolone class, is commonly used to treat various bacterial infections, including urinary tract infections and pneumonia. It exerts a bactericidal effect by inhibiting bacterial DNA gyrase, thereby disrupting DNA replication and transcription […]. The fractional inhibitory concentration index (FICI) results for BP100 and its selected analogs, when paired with ciprofloxacin against MDRPA, are detailed in Table 5. […] Such combinations may offer a valuable approach to enhancing the efficacy of existing antibiotics and potentially mitigating the development of antimicrobial resistance.
The synergistic effects of peptide-antibiotic combinations against methicillin-resistant Staphylococcus aureus (MRSA; CCARM 3089) and multidrug-resistant Pseudomonas aeruginosa (MDRPA; CCARM 2095) were evaluated using the fractional inhibitory concentration index (FICI) method. Antibiotics and peptides were subjected to two-fold serial dilutions, mixed in equal ratios, and combined with a bacterial suspension adjusted to approximately 10^6 CFU/mL. The resulting mixtures were distributed into microplate wells and incubated at 37 °C with orbital shaking at 200 rpm for 24 h. Bacterial growth was monitored by measuring the optical density at 600 nm (OD600). The FICI was calculated using the broth microdilution checkerboard method, defined as the sum of the ratios of the minimum inhibitory concentrations (MICs) of each agent in combination to their individual MICs, according to the following equation: FICI = (MIC of antibiotic in combination/MIC of antibiotic alone) + (MIC of peptide in combination/MIC of peptide alone). The interpretation of FICI values was as follows: FICI ≤ 0.5 indicates synergy; 0.5 < FICI ≤ 1.0 indicates an additive effect; 1.0 < FICI ≤ 4.0 indicates indifference; and FICI > 4.0 indicates antagonism.

[4] = test system: E. coli (KCTC 1682); type: cell-based, Escherichia coli; conditions: 10% Human Serum
[5] = test system: S. aureus (KCTC 1621); type: cell-based, Staphylococcus aureus; conditions: 10% Human Serum

Row | Compound | MBEC50 [1] [µM] | MBEC90 [1] [µM] | MIC ([2]; 4 μM of FeCl3) [µM] | MIC ([2]; 6 μM of NH4Cl) [µM] | MIC ([2]; 1 mM of MgCl2) [µM] | MIC ([2]; 2.5 mM of CaCl2) [µM] | MIC ([2]; 4.5 mM of KCl) [µM] | MIC ([2]; 150 mM of NaCl) [µM] | MIC ([2]; Control, absence of salts) [µM] | MICA: MIC of peptide alone [3] [µg/mL] | FICI: fractional inhibitory concentration index [3] | MIC [4] [µM] | MIC [5] [µM]
1 | CC[C@H](C)[C@H](NC(=O)[C@H](CCCCN)NC(=O)[C@H](CCCCN)NC(=O)[C@H](Cc1c[nH]c2ccccc12)NC(=O)[C@H](CC(C)C)NC(=O)[C@H](CCCCN)NC(=O)[C@@H](N)CCCCN)C(=O)N[C@@H](CC(C)C)C(=O)N[C@@H](CCCCN)C(=O)N[C@@H](Cc1ccc(O)cc1)C(=O)N[C@@H](CC(C)C)C(N)=O [BP1] | 8 | 16 | – | – | – | – | – | – | – | – | – | – | –
2 | CC(C)C[C@H](NC(=O)[C@H](Cc1ccc(O)cc1)NC(=O)[C@H](CCCCN)NC(=O)[C@H](CC(C)C)NC(=O)[C@H](Cc1c[nH]c2ccccc12)NC(=O)[C@H](CCCCN)NC(=O)[C@H](CCCCN)NC(=O)[C@H](Cc1ccccc1)NC(=O)[C@H](CC(C)C)NC(=O)[C@H](CCCCN)NC(=O)[C@@H](N)CCCCN)C(N)=O [BP2] | 16 to 32 | 32 | – | – | – | – | – | – | – | – | – | – | –
3 | CC[C@H](C)[C@H](NC(=O)[C@H](CCCCN)NC(=O)[C@H](CCCCN)NC(=O)[C@H](Cc1ccccc1)NC(=O)[C@H](CC(C)C)NC(=O)[C@H](CCCCN)NC(=O)[C@@H](N)CCCCN)C(=O)N[C@@H](Cc1c[nH]c2ccccc12)C(=O)N[C@@H](CCCCN)C(=O)N[C@@H](Cc1ccc(O)cc1)C(=O)N[C@@H](CC(C)C)C(N)=O [BP3] | 16 | 32 | – | – | – | – | – | – | – | – | – | – | –
4 | CC[C@H](C)[C@H](NC(=O)[C@H](CCCCN)NC(=O)[C@H](CCCCN)NC(=O)[C@H](Cc1ccccc1)NC(=O)[C@H](CC(C)C)NC(=O)[C@H](CCCCN)NC(=O)[C@@H](N)CCCCN)C(=O)N[C@@H](CC(C)C)C(=O)N[C@@H](CCCCN)C(=O)N[C@@H](Cc1c[nH]c2ccccc12)C(=O)N[C@@H](CC(C)C)C(N)=O [BP4] | 8 | 32 | – | – | – | – | – | – | – | – | – | – | –
5 | CC[C@H](C)[C@H](NC(=O)[C@H](CCCCN)NC(=O)[C@H](CCCCN)NC(=O)[C@H](Cc1ccccc1)NC(=O)[C@H](CC(C)C)NC(=O)[C@H](CCCCN)NC(=O)[C@@H](N)CCCCN)C(=O)N[C@@H](CC(C)C)C(=O)N[C@@H](CCCCN)C(=O)N[C@@H](Cc1ccc(O)cc1)C(=O)N[C@@H](CC(C)C)C(N)=O [BP100] | 16 to 32 | 32 | 16 (≈ 22.7 µg/mL) | 16 (≈ 22.7 µg/mL) | 16 (≈ 22.7 µg/mL) | 16 (≈ 22.7 µg/mL) | 16 (≈ 22.7 µg/mL) | 16 (≈ 22.7 µg/mL) | 4 | 32 | 0.375 | 16 (≈ 22.7 µg/mL) | 32 (≈ 45.5 µg/mL)
6 | KKLFKKILKWW-NH2 [BP12] | 8 to 16 | 16 | – | – | – | – | – | – | – | – | – | – | –
7 | KKLFKKIWKWL-NH2 [BP11] | 4 to 8 | 8 | 4 | 4 | 8 | 16 | 8 | 16 | 8 | 8 | 0.3125 | 8 | 8
8 | KKLFKKWLKYW-NH2 [BP10] | 8 to 16 | 16 | – | – | – | – | – | – | – | – | – | – | –

Source: paper PMC11596392, “Enhanced Antibacterial, Anti-Inflammatory, and Antibiofilm Activities of Tryptophan-Substituted Peptides Derived from Cecropin A-Melittin Hybrid Peptide BP100” (Molecules, 2024)
